Results from the NIST ThermoML archive (doi:10.1016/j.jct.2014.09.014).

Conditions: Liquid, Vibrating tube method

CCCCn1cc[n+](C)c1C.O=S(=O)([N-]S(=O)(=O)C(F)(F)F)C(F)(F)F
mass density [kg/m3]
Conditions | 100 kPa | 1000 kPa | 10000 kPa | 20000 kPa | 40000 kPa | 60000 kPa | 80000 kPa | 100000 kPa | 120000 kPa
278.15 K | 1439.8 | 1440 | 1445.9 | 1452.2 | 1464 | 1475 | 1485.2 | 1494.7 | 1503.9
298.15 K | 1420.9 | 1421.2 | 1427.5 | 1434.1 | 1446.5 | 1458 | 1468.8 | 1479 | 1488.7
313.15 K | 1407.1 | 1407.5 | 1414 | 1420.9 | 1433.9 | 1445.8 | 1457 | 1467.3 | 1477.2
333.15 K | 1388.5 | 1389 | 1396 | 1403.4 | 1417.1 | 1429.7 | 1441.4 | 1452.2 | 1462.6
348.15 K | 1374.7 | 1375.3 | 1382.7 | 1390.4 | 1404.7 | 1417.8 | 1429.9 | 1441.1 | 1451.7
373.15 K | 1351.1 | 1352.3 | 1360.4 | 1368.7 | 1384 | 1397.9 | 1410.6 | 1422.5 | 1433.6
398.15 K | 1328.4 | 1329.7 | 1338.4 | 1347.4 | 1363.8 | 1378.5 | 1392.1 | 1404.6 | 1416
